Numbered stars: 1 amine (or outer) side, 2 acyl side, 3 side chain; on linkers, the order of the positions; unused ones are H or OH. Square brackets hold non-standard residues; d marks the D form. Primed or numbered codes have the meaning given here. Side chains are listed from the residue outwards. Ends that are not written are not given here. * marks the point of attachment. C18 diacid = O=C(O)CCCCCCCCCCCCCCCCC(=O)*; γGlu = O=C(O)[C@H](CCC(=O)[*:2])N[*:1]; Stearoyl = CCCCCCCCCCCCCCCCCC(=O)*; Palmitoyl = CCCCCCCCCCCCCCCC(=O)*; Nle = CCCC[C@H](N)C(=O)O; PEG2′ = not defined here; Aib = CC(C)(N)C(=O)O
How the values were obtained:
[1] = tested on: BDL-induced cholestasis hepatic fibrosis in rats; experiment: Bile duct ligation (BDL)-induced hepatic fibrosis in rats (biliary cirrhosis rat model); format: in vivo, SD rats; settings: 50 μg/kg subcutaneous every two days, 14 days
Procedure: 1. Experimental Drugs: polypeptide compounds 3, 6, 7, 10, 17, 20, 37, 38, 39, 40, 44, 46, Obeticholic Acid (Abbr. OCA, CAS:459789-99-2, purchased from Zhejiang Warrant Pharmaceutical Co., Ltd.) and Liraglutide. Saving condition was −20° C.
128 male SD rats with body weight of 200-230 g were randomly divided into sixteen groups, which were respectively:
SD rats with body weight of 200-230 g at SPF level were provided by Lanzhou University Laboratory Animal Center. After rats were quarantined in the room (SPF environment) for one week, model rat and rat in sham-operated group were subject to intraperitoneal injection and anesthesia with 0.6% pentobarbital sodium solution, and operation was performed on a super clean bench after anesthesia. Bilateral ligation was conducted on model rat after the common bile duct was separated, and ligation was not conducted on rat in sham-operated group, but only the common bile duct was separated. Administration was started from the next day of the operation.
Administration was started from the first day of the operation, and subcutaneous injection of compounds 3, 6, 7, 10, 17, 20, 37, 38, 39, 40, 44, 46 and Liraglutide with 50 μg/kg was performed every two days; intraperitoneal injection for the Obeticholic Acid administration group with 7.5 mg/kg was performed every day; as for the normal saline group, injection was performed every day. During the administration, changes in vital signs of rats were observed every day.
After the end of two weeks of administration cycle (14 days), the rats were killed to collect materials for subsequent biological determination experiments. The livers were taken out for HE dye, Sirius Red dye and IHC dye. Image-pro plus and Graph pad software were used for statistics.

[2] = tested on: human hepatic stellate cells (LX-2); experiment: In vitro inhibition of hepatic fibrosis: expression of activation marker α-SMA in LX-2 cells (Western Blot, β-actin internal reference); format: cell-based; settings: 10.0 μM, 48 hours, negative control (PBS) = 100%
Procedure: Hepatic stellate cell strain LX-2 was selected to study and observe the effect of different doses of test substances on the expression of LX-2 cell activation marker α-SMA. Hepatic stellate cell LX-2 was laid on 35 mm cell culture plate, cultured with DMEM (high glucose)+10% FBS+1% double-antibody culture medium (Thermo Fisher), placed overnight when the cells grew to 70% convergence at 37° C. and under the condition of 5% CO2, and treated with the above GLP-1R/GCGR dual target agonist polypeptides 1-48 (dissolved in PBS) for 48 hours the next day morning to extract cell protein, carry out Western Blot, and take β-actin as internal reference and analyze the expression quantities of α-SMA and β-actin by a gray level of Image J 1.50i. PBS with the same volume as that in experimental group was added in negative control. […] The integrating gray level of α-SMA/β-actin in the negative control group was 100% to analyze the in vitro inhibition activity of hepatic fibrosis of tested polypeptide.

Substance	ALT in the serum (FIG. 6) [1]	BDL-induced hepatic fibrosis and inflammation (HE, Sirius Red, IHC sections) [1]	collagenous fiber deposition in liver (Sirius Red dyed sections, FIGS. 2, 4) [1]	content of hydroxyproline of the liver (FIG. 7) [1]	α-SMA in liver (IHC dyed sections, FIGS. 3, 5) [1]	Relative expression of α-SMA (α-SMA/β-actin, %) [2] [%]
His-(D-Ser)-Gln-Gly-Thr-Phe-Thr-Ser-Asp-Lys(PEG2-PEG2-CO(CH2)14CH3)-Ser-Lys-Tyr-Leu-Asp-Aib-Arg-Arg-Ala-Gln-Asp-Phe-Val-Gln-Trp-Leu-Leu-Asn-Thr-Gly-Gly-Pro-Ser-Ser-Gly-Ala-Pro-Pro-Pro-Ser-NH2 (H[dS]QGTFTSDK([PEG2′-PEG2′-Palmitoyl])SKYLD[Aib]RRAQDFVQWLLNTGGPSSGAPPPS-NH2) [Compound 44]	significantly inhibit	significantly reduce	significantly inhibit	significantly inhibit	significantly inhibit	39.19
His-(D-Ser)-Gln-Gly-Thr-Phe-Thr-Ser-Asp-Lys(PEG2-PEG2-CO(CH2)16CO2H-Ser-Lys-Tyr-Leu-Asp-Aib-Arg-Arg-Ala-Gln-Asp-Phe-Val-Gln-Trp-Leu-Nle-Asn-Thr-Gly-Gly-Pro-Ser-Ser-Gly-Ala-Pro-Pro-Pro-Ser-NH2 (H[dS]QGTFTSDK([PEG2′-PEG2′-C18 diacid])SKYLD[Aib]RRAQDFVQWL[Nle]NTGGPSSGAPPPS-NH2) [Compound 46]	significantly inhibit	significantly reduce	significantly inhibit	significantly inhibit	significantly inhibit	36.84
His-(D-Ser)-Gln-Gly-Thr-Phe-Thr-Ser-Asp-Tyr-Ser-Lys(PEG2-PEG2-CO(CH2)16CH3)-Lys-Leu-Asp-Aib-Arg-Arg-Ala-Gln-Asp-Phe-Val-Gln-Trp-Leu-Met-Asn-Thr-Gly-Gly-Pro-Ser-Ser-Gly-Ala-Pro-Pro-Pro-Ser-NH2 (H[dS]QGTFTSDYSK([PEG2′-PEG2′-Stearoyl])KLD[Aib]RRAQDFVQWLMNTGGPSSGAPPPS-NH2) [Compound 3]	significantly inhibit	significantly reduce	significantly inhibit	significantly inhibit	significantly inhibit	32.25
His-(D-Ser)-Gln-Gly-Thr-Phe-Thr-Ser-Asp-Tyr-Ser-Lys(PEG2-PEG2-γGlu-CO(CH2)16CO2H)-Lys-Leu-Asp-Aib-Arg-Arg-Ala-Gln-Asp-Phe-Val-Gln-Trp-Leu-Met-Asn-Thr-Gly-Gly-Pro-Ser-Ser-Gly-Ala-Pro-Pro-Pro-Ser-NH2 (H[dS]QGTFTSDYSK([PEG2′-PEG2′-γGlu-C18 diacid])KLD[Aib]RRAQDFVQWLMNTGGPSSGAPPPS-NH2) [Compound 20]	significantly inhibit	significantly reduce	significantly inhibit	significantly inhibit	significantly inhibit	28.39
His-(D-Ser)-Gln-Gly-Thr-Phe-Thr-Ser-Asp-Tyr-Ser-Lys-Tyr-Leu-Asp-Aib-Lys(PEG2-PEG2-CO(CH2)16CO2H)-Arg-Ala-Gln-Asp-Phe-Val-Gln-Trp-Leu-Met-Asn-Thr-Gly-Gly-Pro-Ser-Ser-Gly-Ala-Pro-Pro-Pro-Ser-NH2 (H[dS]QGTFTSDYSKYLD[Aib]K([PEG2′-PEG2′-C18 diacid])RAQDFVQWLMNTGGPSSGAPPPS-NH2) [Compound 10]	significantly inhibit	significantly reduce	significantly inhibit	significantly inhibit	significantly inhibit	39.49
His-(D-Ser)-Gln-Gly-Thr-Phe-Thr-Ser-Asp-Tyr-Ser-Lys-Tyr-Leu-Asp-Aib-Lys(PEG2-PEG2-γGlu-CO(CH2)16CO2H)-Arg-Ala-Gln-Asp-Phe-Val-Gln-Trp-Leu-Met-Asn-Thr-Gly-Gly-Pro-Ser-Ser-Gly-Ala-Pro-Pro-Pro-Ser-NH2 (H[dS]QGTFTSDYSKYLD[Aib]K([PEG2′-PEG2′-γGlu-C18 diacid])RAQDFVQWLMNTGGPSSGAPPPS-NH2) [Compound 7]	significantly inhibit	significantly reduce	significantly inhibit	significantly inhibit	significantly inhibit	40.52
His-(D-Ser)-Gln-Gly-Thr-Phe-Thr-Ser-Asp-Tyr-Ser-Lys-Tyr-Leu-Asp-Lys(PEG2-PEG2-γGlu-CO(CH2)14CH3)-Arg-Arg-Ala-Gln-Asp-Phe-Val-Gln-Trp-Leu-Leu-Asn-Thr-Gly-Gly-Pro-Ser-Ser-Gly-Ala-Pro-Pro-Pro-Ser-NH2 (H[dS]QGTFTSDYSKYLDK([PEG2′-PEG2′-γGlu-Palmitoyl])RRAQDFVQWLLNTGGPSSGAPPPS-NH2) [Compound 40]	significantly inhibit	significantly reduce	significantly inhibit	significantly inhibit	significantly inhibit	37.55
His-(D-Ser)-Gln-Gly-Thr-Phe-Thr-Ser-Asp-Tyr-Ser-Lys-Tyr-Leu-Asp-Lys(PEG2-PEG2-γGlu-CO(CH2)14CH3)-Arg-Arg-Ala-Gln-Asp-Phe-Val-Gln-Trp-Leu-Met-Asn-Thr-Gly-Gly-Pro-Ser-Ser-Gly-Ala-Pro-Pro-Pro-Ser-NH2 (H[dS]QGTFTSDYSKYLDK([PEG2′-PEG2′-γGlu-Palmitoyl])RRAQDFVQWLMNTGGPSSGAPPPS-NH2) [Compound 6]	significantly inhibit	significantly reduce	significantly inhibit	significantly inhibit	significantly inhibit	29.19
His-(D-Ser)-Gln-Gly-Thr-Phe-Thr-Ser-Asp-Tyr-Ser-Lys-Tyr-Leu-Asp-Lys(PEG2-PEG2-γGlu-CO(CH2)14CH3)-Arg-Arg-Ala-Gln-Asp-Phe-Val-Gln-Trp-Leu-Nle-Asn-Thr-Gly-Gly-Pro-Ser-Ser-Gly-Ala-Pro-Pro-Pro-Ser-NH2 (H[dS]QGTFTSDYSKYLDK([PEG2′-PEG2′-γGlu-Palmitoyl])RRAQDFVQWL[Nle]NTGGPSSGAPPPS-NH2) [Compound 37]	significantly inhibit	significantly reduce	significantly inhibit	significantly inhibit	significantly inhibit	29.95

Source: patent US11419918B2, “Treatment of biliary cirrhosis based on oxyntomodulin analogue GLP-1R/GCGR dual-target agonist peptide” (Shenzhen Turier Biotech Co., Ltd., priority 2017, dated 2022)
